Assay results published in the NIST ThermoML archive (doi:10.1021/je700406p).

Experiment: wn = mass fraction of the nth substance listed
Details: Liquid, Vibrating tube method

CC(C)(N)CO [2-amino-2-methylpropan-1-ol] + O
Details	mass density [kg/m3]
323.09 K, 19985 kPa, w1 = 0.4976	978
323.09 K, 20939 kPa, w1 = 0.4976	978.4
323.1 K, 513 kPa, w1 = 0.1997	984.2
323.1 K, 1002 kPa, w1 = 0.4002	978
323.1 K, 1007 kPa, w1 = 0.1997	984.4
323.1 K, 2005 kPa, w1 = 0.1997	984.8
323.1 K, 2023 kPa, w1 = 0.4002	978.4
323.1 K, 3001 kPa, w1 = 0.4002	978.9
323.1 K, 3005 kPa, w1 = 0.1997	985.1
323.1 K, 4001 kPa, w1 = 0.1997	985.5
323.1 K, 4011 kPa, w1 = 0.4002	979.2
323.1 K, 5000 kPa, w1 = 0.1997	986
323.1 K, 5000 kPa, w1 = 0.4002	979.7
323.1 K, 6002 kPa, w1 = 0.4002	980
323.1 K, 6003 kPa, w1 = 0.1997	986.3
323.1 K, 6999 kPa, w1 = 0.4002	980.4
323.1 K, 7003 kPa, w1 = 0.1997	986.8
323.1 K, 7990 kPa, w1 = 0.4002	980.8
323.1 K, 8001 kPa, w1 = 0.1997	987.1
323.1 K, 9002 kPa, w1 = 0.4002	981.2
323.1 K, 9013 kPa, w1 = 0.1997	987.5
323.1 K, 9990 kPa, w1 = 0.4002	981.6
323.1 K, 10002 kPa, w1 = 0.1997	987.9
323.1 K, 10992 kPa, w1 = 0.4002	982
323.1 K, 11001 kPa, w1 = 0.1997	988.3
323.1 K, 11996 kPa, w1 = 0.4002	982.5
323.1 K, 12004 kPa, w1 = 0.1997	988.7
323.1 K, 12990 kPa, w1 = 0.4002	982.8
323.1 K, 13009 kPa, w1 = 0.1997	989
323.1 K, 13994 kPa, w1 = 0.4002	983.2
323.1 K, 13999 kPa, w1 = 0.1997	989.4
323.1 K, 14992 kPa, w1 = 0.4002	983.6
323.1 K, 15001 kPa, w1 = 0.1997	989.8
323.1 K, 15995 kPa, w1 = 0.4002	984
323.1 K, 16002 kPa, w1 = 0.1997	990.2
323.1 K, 16986 kPa, w1 = 0.4002	984.4
323.1 K, 17001 kPa, w1 = 0.1997	990.6
323.1 K, 17993 kPa, w1 = 0.4002	984.8
323.1 K, 18004 kPa, w1 = 0.1997	991
323.1 K, 18995 kPa, w1 = 0.4002	985.1
323.1 K, 19000 kPa, w1 = 0.1997	991.4
323.1 K, 19992 kPa, w1 = 0.4002	985.5
323.1 K, 20030 kPa, w1 = 0.1997	991.7
323.1 K, 21005 kPa, w1 = 0.1997	992.1
323.1 K, 21297 kPa, w1 = 0.4002	986
323.1 K, 22004 kPa, w1 = 0.1997	992.5
323.1 K, 22998 kPa, w1 = 0.1997	992.9
323.1 K, 24004 kPa, w1 = 0.1997	993.3
332.01 K, 1005 kPa, w1 = 0.2821	976.1
332.01 K, 2004 kPa, w1 = 0.2821	976.5
332.01 K, 2997 kPa, w1 = 0.2821	977
332.01 K, 4002 kPa, w1 = 0.2821	977.4
332.01 K, 5002 kPa, w1 = 0.2821	977.8
332.01 K, 5997 kPa, w1 = 0.2821	978.2
332.01 K, 6999 kPa, w1 = 0.2821	978.6
332.01 K, 7996 kPa, w1 = 0.2821	979
332.01 K, 8992 kPa, w1 = 0.2821	979.4
332.01 K, 9994 kPa, w1 = 0.2821	979.8
332.01 K, 11040 kPa, w1 = 0.2821	980.2
332.01 K, 11992 kPa, w1 = 0.2821	980.6
332.01 K, 12990 kPa, w1 = 0.2821	981
332.01 K, 13989 kPa, w1 = 0.2821	981.4
332.01 K, 14989 kPa, w1 = 0.2821	981.8
332.01 K, 15990 kPa, w1 = 0.2821	982.2
